Data published in patent US20100063085A1, “METHOD OF TREATING LEARNING IMPAIRMENT IN DOWN'S SYNDROME SUBJECTS” (University Court of The University of Dundee, priority 2008, published 2010).
Like-named read-outs stand apart in the source and are kept apart here.

Experiments:
[1] = system: PKBΔph; assay: PKBΔph 33P kinase assay; format: biochemical
Method: (§1) All assays (25.5 μl) were carried out at room temperature (21° C.) and were linear with respect to time and enzyme concentrations under the conditions used. Assays were performed for 30 minutes except assays for LCK and PKB which were performed for 15 minutes using Multidrop Micro reagent dispensers (Thermo Electron Corporation, Waltham, Mass. 02454, USA) in a 96-well format. The concentration of […] [γ-^33P] ATP (800 cpm/pmol) in the assays was one of three concentrations (5, 20 or 50 μM) in order to be at or below Km for ATP for the enzyme. Assays were initiated with MgATP and stopped by addition of 5 μl of 0.5M orthophosphoric acid. Assays were then harvested onto P81 filterplates using a unifilter harvester (PerkinElmer, Boston, Mass. 02118, USA), with a wash buffer of 50 mM orthophosphoric acid. Filterplates were then air dried overnight. 10 μl of Microscint O was added per well prior to counting for radioactivity.

[2] = target: NEK6 (Homo sapiens, UniProt Q9HC98); assay: biochemical; details: read-out: NEK6 activity as percentage of control without inhibitor
Chain of NEK6 (Q9HC98 whole entry, species assumed): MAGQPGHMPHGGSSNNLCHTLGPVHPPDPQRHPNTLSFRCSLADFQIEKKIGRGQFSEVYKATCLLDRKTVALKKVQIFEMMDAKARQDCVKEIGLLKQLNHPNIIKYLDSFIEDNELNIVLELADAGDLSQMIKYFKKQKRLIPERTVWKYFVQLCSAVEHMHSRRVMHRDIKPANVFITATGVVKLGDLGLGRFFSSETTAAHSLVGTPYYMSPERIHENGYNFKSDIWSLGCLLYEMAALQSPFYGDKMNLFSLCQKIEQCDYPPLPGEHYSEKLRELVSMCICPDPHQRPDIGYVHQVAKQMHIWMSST
Method: as §1
NEK6 (5-20 mU diluted in 50 mM Tris (pH 7.5), 0.1 mM EGTA, 1 mg/ml BSA, 0.1%, β-Mercaptoethanol) is assayed against NEK6 peptide ([…]) in a final volume of 25.5 μl containing 50 mM Tris (pH 7.5), 0.1 mM EGTA, 0.01% Brij, 0.1%, β-Mercaptoethanol, NEK6 peptide (0.3 mM), 10 mM magnesium acetate and 0.05 mM [^33P- γATP](500-1000 cpm/pmole) and incubated for 30 min at room temperature.

[3] = target: smMLCK (Homo sapiens, UniProt Q15746); assay: smMLCK 33P kinase assay; format: biochemical; details: read-out: smMLCK activity as percentage of control without inhibitor
Method: as §1
smMLCK (5-20 mU) diluted in 50 mM Hepes pH 7.5, 0.1 mM EGTA, 1 mg.ml BSA, 0.1% β-mercaptoethanol is assayed against substrate peptide […] in an incubation containing 50 mM Hepes pH 7.5, 0.1 mM EGTA, 5 mM CaCl2, 10 μM calmodulin, 300 μM substrate peptide, 10 mM magnesium acetate and 0.05 mM [^33P-γ-ATP] (500-1000 cpm/pmole).

[4] = system: AMPK; assay: AMPK 33P kinase assay; format: biochemical
Method: as §1
(§2) MKK1, JNK/SAPK1c, SAPK2a/p38, SAPK2b/p38β2, SAPK3/p38γ, SAPK4/p38δ, MAPK2/ERK2, MAPKAP-K1β, MAPKAP-K2, MSK1, PRAK, PKA, PKCα, PDK1, SGK, p70S6K, GSK3β, ROCK-II, PRK2, AMPK, CHK1, CHK2, CK2, PHK, LCK, were assayed according to Davies et al., (Davies, S. P., Reddy, H., Caivano, M. and Cohen, P. Biochem. J. 351, 95-105, 2000.
(§3) CSK and CDK2/cyclinA, were assayed according to Bain et al. (Bain J, McLauchlan H, Elliott M, Cohen P. Biochem J. 371, 199-204, 2003., except that ATP concentrations were either 5, 20 or 50 micromolar so that they were at or below the Km for ATP. The ATP concentrations used were as follows, 5 μM for assays of MKK1, SAPK3, SAPK4, GSK3β, PRK2 CK2 20 μm for assays of JNK, SAPK2β, MAPKAP-K2, MSK1, PRAK, PKA, […], PDK1, SGK, p70S6K, ROCK-II, CHK1, CHK2, CSK, CDK2, and 50 μM for assays of SAPK2a, MAPK2/ERK2, AMPK, LCK, PHK and MAPKAP-K1β.

[5] = target: T1, CHK1 (Homo sapiens, UniProt O14757); assay: CHK1 33P kinase assay; format: biochemical; details: read-out: CHK1 activity as percentage of control without inhibitor
T1 sequence (O14757 1-476): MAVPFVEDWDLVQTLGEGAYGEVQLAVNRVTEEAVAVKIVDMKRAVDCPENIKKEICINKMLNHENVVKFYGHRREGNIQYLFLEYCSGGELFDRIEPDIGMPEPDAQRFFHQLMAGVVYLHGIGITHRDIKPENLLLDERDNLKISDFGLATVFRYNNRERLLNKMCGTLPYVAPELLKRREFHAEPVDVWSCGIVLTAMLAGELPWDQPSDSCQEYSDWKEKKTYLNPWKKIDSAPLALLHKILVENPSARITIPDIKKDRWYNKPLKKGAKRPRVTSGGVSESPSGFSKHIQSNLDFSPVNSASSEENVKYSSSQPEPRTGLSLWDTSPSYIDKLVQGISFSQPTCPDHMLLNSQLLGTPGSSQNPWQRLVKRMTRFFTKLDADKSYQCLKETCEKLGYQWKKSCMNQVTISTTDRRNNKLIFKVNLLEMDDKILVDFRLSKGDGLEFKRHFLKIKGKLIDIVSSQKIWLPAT
Method: as §1, §2, §3

[6] = target: ROCK-II (Homo sapiens, UniProt O75116); assay: ROCK-II 33P kinase assay; format: biochemical; details: read-out: ROCK-II activity as percentage of control without inhibitor
Chain of ROCK-II (O75116 whole entry, species assumed): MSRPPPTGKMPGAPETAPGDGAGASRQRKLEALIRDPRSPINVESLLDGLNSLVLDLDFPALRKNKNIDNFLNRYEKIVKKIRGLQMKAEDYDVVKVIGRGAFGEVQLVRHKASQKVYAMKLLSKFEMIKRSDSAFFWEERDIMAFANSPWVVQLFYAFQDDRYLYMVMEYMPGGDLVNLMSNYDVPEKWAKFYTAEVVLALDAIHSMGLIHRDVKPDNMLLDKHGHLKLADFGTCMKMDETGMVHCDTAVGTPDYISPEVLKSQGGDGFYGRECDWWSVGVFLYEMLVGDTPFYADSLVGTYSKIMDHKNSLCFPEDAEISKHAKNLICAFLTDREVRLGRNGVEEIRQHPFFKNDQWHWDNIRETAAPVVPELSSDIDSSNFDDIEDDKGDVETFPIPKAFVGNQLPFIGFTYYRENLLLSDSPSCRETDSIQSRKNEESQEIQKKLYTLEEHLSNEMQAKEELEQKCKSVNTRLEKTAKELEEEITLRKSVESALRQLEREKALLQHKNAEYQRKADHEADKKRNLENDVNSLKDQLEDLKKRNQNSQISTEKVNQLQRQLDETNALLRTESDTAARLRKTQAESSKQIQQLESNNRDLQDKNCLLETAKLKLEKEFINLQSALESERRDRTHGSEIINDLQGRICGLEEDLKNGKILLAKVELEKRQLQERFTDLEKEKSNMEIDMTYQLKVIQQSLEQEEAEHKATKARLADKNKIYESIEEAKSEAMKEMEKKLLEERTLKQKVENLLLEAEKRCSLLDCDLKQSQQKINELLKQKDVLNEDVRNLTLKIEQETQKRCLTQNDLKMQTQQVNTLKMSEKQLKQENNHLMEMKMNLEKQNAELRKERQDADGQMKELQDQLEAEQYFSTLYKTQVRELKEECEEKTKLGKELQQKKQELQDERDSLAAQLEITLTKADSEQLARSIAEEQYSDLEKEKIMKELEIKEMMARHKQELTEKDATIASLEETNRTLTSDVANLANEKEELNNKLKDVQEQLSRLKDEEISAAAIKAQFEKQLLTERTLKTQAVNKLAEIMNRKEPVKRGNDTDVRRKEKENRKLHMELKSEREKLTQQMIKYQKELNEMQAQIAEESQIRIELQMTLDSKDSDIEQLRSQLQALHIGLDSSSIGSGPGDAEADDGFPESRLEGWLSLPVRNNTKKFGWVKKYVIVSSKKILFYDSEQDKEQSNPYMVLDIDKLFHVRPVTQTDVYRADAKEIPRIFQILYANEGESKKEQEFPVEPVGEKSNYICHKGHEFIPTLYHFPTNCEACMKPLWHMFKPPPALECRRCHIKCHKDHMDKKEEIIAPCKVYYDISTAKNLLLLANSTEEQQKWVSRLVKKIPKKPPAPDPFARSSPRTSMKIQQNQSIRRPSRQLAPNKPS
Method: as §1, §2, §3

[7] = system: CK1; assay: CK1 33P kinase assay; format: biochemical
Method: as §1

[8] = target: T2, PRAK (Homo sapiens, UniProt Q8IW41); assay: PRAK 33P kinase assay; format: biochemical; details: read-out: PRAK activity as percentage of control without inhibitor; for remaining activity at 1 µM: inhibitor 1 μM; for remaining activity at 10 µM: inhibitor 10 μM
T2 sequence (Q8IW41 1-473): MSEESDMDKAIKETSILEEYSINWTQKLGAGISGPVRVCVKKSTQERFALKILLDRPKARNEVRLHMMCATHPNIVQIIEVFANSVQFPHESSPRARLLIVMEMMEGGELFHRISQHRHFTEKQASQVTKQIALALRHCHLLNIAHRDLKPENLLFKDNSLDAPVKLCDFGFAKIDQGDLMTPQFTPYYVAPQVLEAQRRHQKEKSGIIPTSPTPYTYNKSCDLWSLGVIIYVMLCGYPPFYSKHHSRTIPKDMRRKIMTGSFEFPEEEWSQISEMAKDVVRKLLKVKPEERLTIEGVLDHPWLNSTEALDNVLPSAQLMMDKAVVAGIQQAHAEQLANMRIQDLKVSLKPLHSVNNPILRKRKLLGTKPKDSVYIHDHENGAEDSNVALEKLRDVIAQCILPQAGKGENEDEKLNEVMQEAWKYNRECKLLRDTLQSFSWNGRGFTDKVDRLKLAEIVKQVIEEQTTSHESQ
Method: as §1, §2, §3

Row | Compound | PKBΔph activity as percentage of control without inhibitor ([1]; inhibitor 1 μM) | PKBΔph activity as percentage of control without inhibitor ([1]; inhibitor 10 μM) | remaining activity at 1 µM ([2]; inhibitor 1 μM) | remaining activity at 10 µM ([2]; inhibitor 10 μM) | remaining activity at 1 µM ([3]; inhibitor 1 μM) | remaining activity at 10 µM ([3]; inhibitor 10 μM) | AMPK activity as percentage of control without inhibitor ([4]; inhibitor 1 μM) | AMPK activity as percentage of control without inhibitor ([4]; inhibitor 10 μM) | remaining activity at 1 µM [5] | remaining activity at 10 µM [5] | remaining activity at 1 µM ([6]; inhibitor 1 μM) | remaining activity at 10 µM ([6]; inhibitor 10 μM) | CK1 activity as percentage of control without inhibitor ([7]; inhibitor 1 μM) | CK1 activity as percentage of control without inhibitor ([7]; inhibitor 10 μM) | remaining activity at 1 µM [8] | remaining activity at 10 µM [8] | also measured
1 | COc1ccc2c3c([nH]c2c1)C(C)=NCC3 [Harmaline] | 80% | 98% | 99% | 87% | 92% | 104% | 97% | 83% | 78% | 67% | 99% | 81% | 84% | 65% | 88% | 93% | –
2 | CC1=NCCc2c1[nH]c1cc(O)ccc21 [Harmalol] | 92% | 58% | 94% | 92% | 76% | 71% | 92% | 52% | – | – | 96% | 81% | 83% | 48% | 84% | 78% | remaining activity at 1 µM ([5]; inhibitor 1 μM): 93%; remaining activity at 10 µM ([5]; inhibitor 10 μM): 81%
3 | COc1ccc2c(c1)[nH]c1c(C)nccc12 [Harmine] | 107% | 107% | – | – | – | – | 98% | 103% | 86% | 86% | – | – | 61% | 21% | 81% | 75% | remaining activity at 1 µM [2]: 96%; remaining activity at 10 µM [2]: 99%; remaining activity at 1 µM [3]: 88%; remaining activity at 10 µM [3]: 76%; remaining activity at 1 µM [6]: 84%; remaining activity at 10 µM [6]: 61%
